Experimental data reported in publication PMC7796460, “Relation of Metal-Binding Property and Selective Toxicity of 8-Hydroxyquinoline Derived Mannich Bases Targeting Multidrug Resistant Cancer Cells” (Cancers, 2021).
Where two headings read alike, the source gives them in different places.

Tests used:
MES-SA cells [1] = assay: MTT viability assay, MES-SA; type: cell-based, human
Excerpt: (§1) MDCK II canine kidney cells, A431 epidermoid carcinoma cells, the human uterine sarcoma cell lines MES-SA and the doxorubicin selected MES-SA-Dx5 were obtained from ATCC (MDCK II: No. CRL-2936™, A431: No. CRL-1555™, MES-SA: No. CRL-1976™, MES-SA/Dx5: No. CRL-1977™). ABCB1 was expressed in A431 and MES-SA cells using lentiviral transduction. The human cervix carcinoma cell line KB-3-1 and the vinblastine selected KB-v1were kind gifts from Dr. Michael M. Gottesman, National Institutes of Health. The phenotype of the resistant cells was verified using cytotoxicity assays. MDCK-B1 and MDCK-MM were established by the Sleeping Beauty transposon-based gene delivery system. OVCAR-8 and NCI-ADRres cells (obtained from the Division of Cancer Treatment and Diagnosis (DCTD) Tumor Repository (National Cancer Institute, Frederick, MD, USA)) were cultivated in RPMI-1640 (Sigma Aldrich, Budapest, Hungary), and other cell lines were cultivated in Dulbecco’s Modified Eagle Medium (DMEM, Sigma Aldrich, Budapest, Hungary), supplemented with 10% fetal bovine serum, 5 mM glutamine, and 50 unit/mL penicillin and streptomycin (Life Technologies, Carlsbad, CA, USA). All cell lines were cultivated at 37 °C, 5% CO2.
(§2) MTT viability assays were performed as described earlier with minor modifications. Briefly, cells were seeded into 96-well tissue culture plates (Sarstedt, Newton, NC, USA/Orange, Braine-l’Alleud, Belgium) at a density of 5000 cells/well and allowed to attach overnight. Test compounds were added to achieve the required final concentration in a final volume of 100 µL per well. After an incubation period of 72 h, the supernatant was removed and fresh medium containing the MTT reagent (0.083 mg/mL) was added. Incubation with MTT at 37 °C was terminated after 1 h by removing the supernatant and lysing the cells with 100 µL DMSO per well. Viability of the cells was measured spectrophotometrically based on the absorbance values at 540 nm using either a Perkin Elmer Victor X3 or an EnSpire microplate reader. Data were background corrected by subtraction of the signal obtained from unstained cell lysates and normalized to untreated cells. Curves were fitted by Prism software (GraphPad Software Inc., San Diego, CA, USA) using the sigmoidal dose-response model (comparing variable and fixed slopes). […] Significance was calculated using unpaired t-tests; results are given as *: p ≤ 0.05, **: p ≤ 0.01, ***: p ≤ 0.001, ****: p ≤ 0.0001.

MES-SA cells [2] = assay: ROS determination with DCFDA, MES-SA; type: cell-based, human; conditions: 2 h
Experimental: (§3) Measurements were performed as described earlier. Briefly, cells were harvested, washed with PBS, and incubated with 10 µM DCFDA in a water bath shaker at 37 °C for 30 min in a density of 3 × 10^6 cells/mL. After washing with PBS, cells were seeded to 96-well plates in PBS in a density of 2 × 10^4 cells/well. Following the measurement of the basal fluorescence, test compounds were added in different concentrations and the fluorescence of the samples was followed at time intervals of 10 min. DCFDA solution in buffer was used as a cell free control to test for interaction of the test compounds with DCFDA. Data were analyzed as fold change of fluorescence compared to basal levels and untreated cells. Significance was calculated using unpaired t-tests; results are given as *: p ≤ 0.05, **: p ≤ 0.01, ***: p ≤ 0.001, ****: p ≤ 0.0001.
(§4) Table S3: Characterization of intracellular ROS production with the DCFDA assay for P -gp negative MES-SA and P-gp positive MES-SA/Dx5 cells. Fold changes in fluorescence are shown after a 2 h with the investigated 8 -hydroxyquinoline ligands. Data S-refer to Figure 7 and allow […]
(§5) concentration range from 6.25µ M to 50µ M. Fold change of fluorescence obtained in the presence of 5 mM NAC is given in brackets.

MES-SA/Dx5 cells [3] = assay: ROS determination with DCFDA, MES-SA/Dx5; type: cell-based, human; conditions: 2 h
Experimental: as §3, §4, §5

MES-SA/Dx5 cells [4] = assay: MTT viability assay, MES-SA/Dx5; type: cell-based, human; conditions: for SR: Table S1, IC50 Pgp negative divided by Pgp positive cells; for SR_TQ: Table S1, presence of 1 µM TQ
Excerpt: as §1, §2

[5] = pKa by UV-visible spectrophotometric titrations; type: physicochemical; conditions: T = 25 °C, I = 0.2 M (KCl)
[6] = Table S1, calculated as ligand equivalents, presence of 1 µM TQ, read-out: IC50 MES-SA_TQ
[7] = Table S1, ligands and in situ preformed complexes, calculated as ligand equivalents, absence of TQ, read-out: IC50 MES-SA
[8] = Table S1, calculated as ligand equivalents, absence of TQ, read-out: IC50 Dx5
[9] = Table S1, calculated as ligand equivalents, presence of 1 µM TQ, read-out: IC50 Dx5_TQ

In the case of “7-(2-fluorobenzyl-aminomethyl)-8-hydroxyquinoline hydrochloride [De-Cl-Q-4]”, the IC50 (MES-SA cells [1]; Table 2, value outside brackets, read-out: MES-SA (toxicity, Table 2)) is reported as 1780 ± 80 nM, the “Fold change in fluorescence (DCFDA)” value (MES-SA cells [2]; 6.25 µM) is reported as 1.431± 0.39 and the “Fold change in fluorescence (DCFDA)” value (MES-SA cells [2]; 6.25 µM, presence of 5 mM NAC (brackets)) is reported as 1.364± 0.44. The “Fold change in fluorescence (DCFDA)” value (MES-SA cells [2]; 12.5 µM) was 1.118± 0.14, the “Fold change in fluorescence (DCFDA)” value (MES-SA cells [2]; 12.5 µM, presence of 5 mM NAC (brackets)) was 1.345± 0.27 and the “Fold change in fluorescence (DCFDA)” value (MES-SA cells [2]; 25 µM) was 1.260± 0.20. The “Fold change in fluorescence (DCFDA)” value (MES-SA cells [2]; 25 µM, presence of 5 mM NAC (brackets)) was 1.111± 0.22, the “Fold change in fluorescence (DCFDA)” value (MES-SA cells [2]; 50 µM) was 1.328± 0.29 and the “Fold change in fluorescence (DCFDA)” value (MES-SA cells [2]; 50 µM, presence of 5 mM NAC (brackets)) was 1.259± 0.29. The “Fold change in fluorescence (DCFDA)” value (MES-SA/Dx5 cells [3]; MES-SA/Dx5, 6.25 µM) was 1.282± 0.35, the “Fold change in fluorescence (DCFDA)” value (MES-SA/Dx5 cells [3]; MES-SA/Dx5, 6.25 µM, presence of 5 mM NAC (brackets)) was 1.137± 0.30 and the “Fold change in fluorescence (DCFDA)” value (MES-SA/Dx5 cells [3]; MES-SA/Dx5, 12.5 µM) was 1.177± 0.22. For the same compound, the “Fold change in fluorescence (DCFDA)” value (MES-SA/Dx5 cells [3]; MES-SA/Dx5, 12.5 µM, presence of 5 mM NAC (brackets)) was 1.088± 0.23, the “Fold change in fluorescence (DCFDA)” value (MES-SA/Dx5 cells [3]; MES-SA/Dx5, 25 µM) was 1.344± 0.27 and the “Fold change in fluorescence (DCFDA)” value (MES-SA/Dx5 cells [3]; MES-SA/Dx5, 25 µM, presence of 5 mM NAC (brackets)) was 1.282± 0.28. For the same compound, the “Fold change in fluorescence (DCFDA)” value (MES-SA/Dx5 cells [3]; MES-SA/Dx5, 50 µM) was 1.373± 0.35, the “Fold change in fluorescence (DCFDA)” value (MES-SA/Dx5 cells [3]; MES-SA/Dx5, 50 µM, presence of 5 mM NAC (brackets)) was 1.265± 0.27 and the “SR MES-SA/Dx5 (Table 2)” value (MES-SA/Dx5 cells [4]; Table 2, value in brackets (Tariquidar as in Table 1)) was 1.72. The “SR MES-SA/Dx5 (Table 2)” value (MES-SA/Dx5 cells [4]; Table 2, value outside brackets) was 5.22, the IC50 (MES-SA/Dx5 cells [4]; Table 2, value outside brackets, read-out: MES-SA/Dx5 (toxicity, Table 2)) was 340 ± 10 nM and the “pKa (NquinoliniumH+)” value [5] was 3.21 ± 0.04. The “pKa (OH)” value [5] was 6.42 ± 0.04 and the “pKa (additional)” value ([5]; group named in the cell (NmorpholiniumH+, NpiperidiniumH+, NbenzylamineH2+)) was 10.69 ± 0.04 (NbenzylamineH2^+).
Compound `[Cu+2].[O-]c1cccc2cccnc12.[O-]c1cccc2cccnc12` [1/2 [Cu(Q-1)2]] has an IC50 (MES-SA cells [1]; [6]) of 4140 ± 1200 nM, an IC50 (MES-SA cells [1]; [7]) of 3770 ± 660 nM and an SR (MES-SA/Dx5 cells [4]; absence of TQ) of 1.86. It also gave an IC50 (MES-SA/Dx5 cells [4]; [8]) of 2030 ± 460 nM, an IC50 (MES-SA/Dx5 cells [4]; [9]) of 2610 ± 440 nM and an SR_TQ (MES-SA/Dx5 cells [4]) of 1.58.
With `[Cu+2].[O-]c1c(CN2CCOCC2)ccc2cccnc12.[O-]c1c(CN2CCOCC2)ccc2cccnc12` [1/2 [Cu(Q-2)2]] the IC50 (MES-SA cells [1]; [6]) was 2020 ± 650 nM, the IC50 (MES-SA cells [1]; [7]) was 2270 ± 670 nM and the SR (MES-SA/Dx5 cells [4]; absence of TQ) was 1.29. The IC50 (MES-SA/Dx5 cells [4]; [8]) was 1760 ± 560 nM, the IC50 (MES-SA/Dx5 cells [4]; [9]) was 1920 ± 450 nM and the SR_TQ (MES-SA/Dx5 cells [4]) was 1.05.
`[Cu+2].[O-]c1c(CN2CCCCC2)ccc2cccnc12.[O-]c1c(CN2CCCCC2)ccc2cccnc12` [1/2 [Cu(Q-3)2]] showed an IC50 (MES-SA cells [1]; [6]) of 2130 ± 650 nM, an IC50 (MES-SA cells [1]; [7]) of 1910 ± 590 nM and an SR (MES-SA/Dx5 cells [4]; absence of TQ) of 2.52. It also gave an IC50 (MES-SA/Dx5 cells [4]; [8]) of 760 ± 260 nM, an IC50 (MES-SA/Dx5 cells [4]; [9]) of 2040 ± 360 nM and an SR_TQ (MES-SA/Dx5 cells [4]) of 1.04.
Work on `[Cu+2].[O-]c1c(CNCc2ccccc2F)cc(Cl)c2cccnc12.[O-]c1c(CNCc2ccccc2F)cc(Cl)c2cccnc12` [1/2 [Cu(Q-4)2]] yielded an IC50 (MES-SA cells [1]; [6]) of 1360 ± 260 nM, an IC50 (MES-SA cells [1]; [7]) of 1460 ± 160 nM and an SR (MES-SA/Dx5 cells [4]; absence of TQ) of 5.03. The IC50 (MES-SA/Dx5 cells [4]; [8]) was 290 ± 39 nM, the IC50 (MES-SA/Dx5 cells [4]; [9]) was 1220 ± 25 nM and the SR_TQ (MES-SA/Dx5 cells [4]) was 1.11.
`[Fe+3].[O-]c1cccc2cccnc12.[O-]c1cccc2cccnc12.[O-]c1cccc2cccnc12` [1/3 [Fe(Q-1)3]] gave an IC50 (MES-SA cells [1]; [6]) of 3070 ± 360 nM, an IC50 (MES-SA cells [1]; [7]) of 3310 ± 520 nM and an SR (MES-SA/Dx5 cells [4]; absence of TQ) of 1.13. For the same compound, the IC50 (MES-SA/Dx5 cells [4]; [8]) was 2920 ± 800 nM, the IC50 (MES-SA/Dx5 cells [4]; [9]) was 2960 ± 640 nM and the SR_TQ (MES-SA/Dx5 cells [4]) was 1.04.
`[Fe+3].[O-]c1c(CN2CCOCC2)ccc2cccnc12.[O-]c1c(CN2CCOCC2)ccc2cccnc12.[O-]c1c(CN2CCOCC2)ccc2cccnc12` [1/3 [Fe(Q-2)3]] showed an IC50 (MES-SA cells [1]; [6]) of 4350 ± 580 nM, an IC50 (MES-SA cells [1]; [7]) of 3870 ± 880 nM and an SR (MES-SA/Dx5 cells [4]; absence of TQ) of 1.24. For the same compound, the IC50 (MES-SA/Dx5 cells [4]; [8]) was 3130 ± 840 nM, the IC50 (MES-SA/Dx5 cells [4]; [9]) was 4230 ± 520 nM and the SR_TQ (MES-SA/Dx5 cells [4]) was 1.03.
